Experiments:
Assay type in all cases: in vivo
[1] = tested on: Monocotyledonous and dicotyledonous weed; assay: Post-emergence test experiment, weed control effect (Table 2); design: key to weed control effect, Setaria viridis (level) / weed control effect, Rorippa indica (level) / weed control effect, Abutilon theophrasti (level) / weed control effect, Echinochloa crus-galli (level) / weed control effect, Digitaria sanguinalis (level): Level 10: completely dead; Level 9: above 90% growth inhibition rate; Level 8: above 80% growth inhibition rate; Level 7: above 70% growth inhibition rate; Level 6: above 60% growth inhibition rate; Level 5: above 50% growth inhibition rate; Level 4: above 30% growth inhibition rate; Level 3: above 20% growth inhibition rate; Level 2: above 10% growth inhibition rate; Level 1: above 1-10% growth inhibition rate; Level 0: no effect; settings: 3 weeks after spraying, greenhouse
In short: (§1)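 Compounds, dissolved in acetone, mixed with Tween 80 and diluted in water, were sprayed post-emergence onto greenhouse-grown weeds and crops at the 2-3 leaf stage (2-3 weeks post-sowing). Plants then grown 3 more weeks in the greenhouse before evaluation.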

[2] = tested on: main crop (wheat, corn, rice, soybean, cotton, oilseed, millet and sorghum); assay: Post-emergence test experiment, main crops (Table 2); design: key: Level 10: completely dead; Level 9: above 90% growth inhibition rate; Level 8: above 80% growth inhibition rate; Level 7: above 70% growth inhibition rate; Level 6: above 60% growth inhibition rate; Level 5: above 50% growth inhibition rate; Level 4: above 30% growth inhibition rate; Level 3: above 20% growth inhibition rate; Level 2: above 10% growth inhibition rate; Level 1: above 1-10% growth inhibition rate; Level 0: no effect; settings: 3 weeks after spraying, greenhouse
In short: as §1

[3] = tested on: Echinochloa crus-galli; assay: Weed control effect evaluation in transplanted rice field; design: key: Level 10: completely dead; Level 9: above 90% growth inhibition rate; Level 8: above 80% growth inhibition rate; Level 7: above 70% growth inhibition rate; Level 6: above 60% growth inhibition rate; Level 5: above 50% growth inhibition rate; Level 4: above 30% growth inhibition rate; Level 3: above 20% growth inhibition rate; Level 2: above 10% growth inhibition rate; Level 1: above 1-10% growth inhibition rate; Level 0: no effect; settings: transplanted rice field pot test, application rate 60 g/ha, 14 days after treatment
Protocol: (§2) Rice field soil was loaded into a 1/1,000,000 ha pot. The seeds of Echinochloa, Scirpus juncoides, Bidens tripartite and Sagittaria trifolia were sowed and gently covered with soil, then left to stand still in greenhouse in the state of 0.5-1 cm of water storage. The tuber of Sagittaria trifolia was planted in the next day or 2 days later. It was kept at 3-4 cm of water storage thereafter. The weeds were treated by dripping the WP or SC water diluents prepared according to the common preparation method of the compounds of the present invention with pipette homogeneously to achieve specified effective amount when Echinochloa, Scirpus juncoides and Bidens tripartite reached 0.5 leaf stage and Sagittaria trifolia reached the time point of primary leaf stage.
(§3) The fertility condition of Echinochloa, Scirpus juncoides, Bidens tripartite and Sagittaria trifolia 14 days after the treatment of the compound of the invention and the fertility condition of rice 21 days after the treatment of the compound of the invention respectively with the naked eye.
(§4) The seeds of Echinochloa crus-galli, Scirpus juncoides and Monochoria vaginalis were collected from Heilongjing and Jiangsu Province of China.

[4] = tested on: Monochoria vaginalis; assay: as above; design: key: Level 10: completely dead; Level 9: above 90% growth inhibition rate; Level 8: above 80% growth inhibition rate; Level 7: above 70% growth inhibition rate; Level 6: above 60% growth inhibition rate; Level 5: above 50% growth inhibition rate; Level 4: above 30% growth inhibition rate; Level 3: above 20% growth inhibition rate; Level 2: above 10% growth inhibition rate; Level 1: above 1-10% growth inhibition rate; Level 0: no effect; settings: transplanted rice field pot test, application rate 60 g/ha, 14 days after treatment
Protocol: as §2, §3, §4

[5] = tested on: Scirpus juncoides; assay: as above; design: key: Level 10: completely dead; Level 9: above 90% growth inhibition rate; Level 8: above 80% growth inhibition rate; Level 7: above 70% growth inhibition rate; Level 6: above 60% growth inhibition rate; Level 5: above 50% growth inhibition rate; Level 4: above 30% growth inhibition rate; Level 3: above 20% growth inhibition rate; Level 2: above 10% growth inhibition rate; Level 1: above 1-10% growth inhibition rate; Level 0: no effect; settings: transplanted rice field pot test, application rate 60 g/ha, 14 days after treatment
Protocol: as §2, §3, §4

[6] = tested on: Rice; assay: Transplanted rice safety evaluation; design: key: Level 10: completely dead; Level 9: above 90% growth inhibition rate; Level 8: above 80% growth inhibition rate; Level 7: above 70% growth inhibition rate; Level 6: above 60% growth inhibition rate; Level 5: above 50% growth inhibition rate; Level 4: above 30% growth inhibition rate; Level 3: above 20% growth inhibition rate; Level 2: above 10% growth inhibition rate; Level 1: above 1-10% growth inhibition rate; Level 0: no effect; settings: transplanted 3 leaf stage japonica rice, application rate 60 g/ha, 21 days after treatment
Protocol: In addition, the rice field soil that loaded into the 1/1,000,000 ha pot was leveled to keep water storage at 3-4 cm depth. The 3 leaf stage rice (japonica rice) was transplanted at 3 cm of transplanting depth the next day. The compound of the present invention was treated by the same way after 5 days of transplantation. The fertility condition of Echinochloa, Scirpus juncoides, Bidens tripartite and Sagittaria trifolia 14 days after the treatment of the compound of the invention and the fertility condition of rice 21 days after the treatment of the compound of the invention respectively with the naked eye.

With C#CCOCc1c(S(C)(=O)=O)ccc(C(=O)c2c(C3CC3)nn(C)c2OC(=O)c2cnn(C)c2)c1Cl [Compound 60] the “weed control effect, Abutilon theophrasti (level)” value ([1]; 30 g/ha) was 6 (Level 6: above 60% growth inhibition rate), the “weed control effect, Bidens pilosa (level)” value ([1]; 30 g/ha) was 4 (Level 4: above 30% growth inhibition rate) and the “weed control effect, Digitaria sanguinalis (level)” value ([1]; 30 g/ha) was 7 (Level 7: above 70% growth inhibition rate). The “weed control effect, Echinochloa crus-galli (level)” value ([1]; 30 g/ha) was 10, the “weed control effect, Rorippa indica (level)” value ([1]; 30 g/ha) was 7 (Level 7: above 70% growth inhibition rate) and the “weed control effect, Setaria viridis (level)” value ([1]; 30 g/ha) was 7 (Level 7: above 70% growth inhibition rate). The “effect on crop, corn (level)” value ([2]; 30 g/ha) was 0, the “effect on crop, rice (level)” value ([2]; 30 g/ha) was 5 (Level 5: above 50% growth inhibition rate) and the “effect on crop, wheat (level)” value ([2]; 30 g/ha) was 0. For the same compound, the “Weed control effect, Echinochloa crus-galli (activity level)” value [3] was 10, the “Weed control effect, Monochoria vaginalis (activity level)” value [4] was 10 and the “Weed control effect, Scirpus juncoides (activity level)” value (shortened to “Weed control effect, Scirpus juncoides”) [5] was 10. The “Rice (safety, activity level)” value [6] was 2 (Level 2: above 10% growth inhibition rate).

In the case of CCOCCOCc1c(S(C)(=O)=O)ccc(C(=O)c2cnn(C)c2OC(=O)c2cnn(C)c2)c1Cl [Compound 68], the “weed control effect, Abutilon theophrasti (level)” value ([1]; 30 g/ha) is reported as 7 (Level 7: above 70% growth inhibition rate), the “weed control effect, Bidens pilosa (level)” value ([1]; 30 g/ha) is reported as 7 (Level 7: above 70% growth inhibition rate) and the “weed control effect, Digitaria sanguinalis (level)” value ([1]; 30 g/ha) is reported as 7 (Level 7: above 70% growth inhibition rate). The “weed control effect, Echinochloa crus-galli (level)” value ([1]; 30 g/ha) was 10, the “weed control effect, Rorippa indica (level)” value ([1]; 30 g/ha) was 10 and the “weed control effect, Setaria viridis (level)” value ([1]; 30 g/ha) was 9 (Level 9: above 90% growth inhibition rate). For the same compound, the “effect on crop, corn (level)” value ([2]; 30 g/ha) was 0, the “effect on crop, rice (level)” value ([2]; 30 g/ha) was 3 (Level 3: above 20% growth inhibition rate) and the “effect on crop, wheat (level)” value ([2]; 30 g/ha) was 0. The “Weed control effect, Echinochloa crus-galli (activity level)” value [3] was 7 (Level 7: above 70% growth inhibition rate), the “Weed control effect, Monochoria vaginalis (activity level)” value [4] was 10 and the “Weed control effect, Scirpus juncoides” value [5] was 10. For the same compound, the “Rice (safety, activity level)” value [6] was 1 (Level 1: above 1-10% growth inhibition rate).

In the case of C#CCOCc1c(S(C)(=O)=O)ccc(C(=O)c2c(C)nn(C)c2OC(=O)c2cn(C)nc2C)c1C [Compound 76], the “weed control effect, Abutilon theophrasti (level)” value ([1]; 30 g/ha) is reported as 7 (Level 7: above 70% growth inhibition rate), the “weed control effect, Bidens pilosa (level)” value ([1]; 30 g/ha) is reported as 7 (Level 7: above 70% growth inhibition rate) and the “weed control effect, Digitaria sanguinalis (level)” value ([1]; 30 g/ha) is reported as 7 (Level 7: above 70% growth inhibition rate). The “weed control effect, Echinochloa crus-galli (level)” value ([1]; 30 g/ha) was 10, the “weed control effect, Rorippa indica (level)” value ([1]; 30 g/ha) was 10 and the “weed control effect, Setaria viridis (level)” value ([1]; 30 g/ha) was 10. The “effect on crop, corn (level)” value ([2]; 30 g/ha) was 1 (Level 1: above 1-10% growth inhibition rate), the “effect on crop, rice (level)” value ([2]; 30 g/ha) was 3 (Level 3: above 20% growth inhibition rate) and the “effect on crop, wheat (level)” value ([2]; 30 g/ha) was 0. For the same compound, the “Weed control effect, Echinochloa crus-galli (activity level)” value [3] was 10, the “Weed control effect, Monochoria vaginalis (activity level)” value [4] was 10 and the “Weed control effect, Scirpus juncoides” value [5] was 10. For the same compound, the “Rice (safety, activity level)” value [6] was 0.

With CCn1nc(C2CC2)c(C(=O)c2ccc(S(C)(=O)=O)c(COCC(F)F)c2Cl)c1OC(=O)c1cn(C)nc1C [Compound 90] the “weed control effect, Abutilon theophrasti (level)” value ([1]; 30 g/ha) was 7 (Level 7: above 70% growth inhibition rate), the “weed control effect, Bidens pilosa (level)” value ([1]; 30 g/ha) was 7 (Level 7: above 70% growth inhibition rate) and the “weed control effect, Digitaria sanguinalis (level)” value ([1]; 30 g/ha) was 10. For the same compound, the “weed control effect, Echinochloa crus-galli (level)” value ([1]; 30 g/ha) was 10, the “weed control effect, Rorippa indica (level)” value ([1]; 30 g/ha) was 10 and the “weed control effect, Setaria viridis (level)” value ([1]; 30 g/ha) was 10. The “effect on crop, corn (level)” value ([2]; 30 g/ha) was 1 (Level 1: above 1-10% growth inhibition rate), the “effect on crop, rice (level)” value ([2]; 30 g/ha) was 3 (Level 3: above 20% growth inhibition rate) and the “effect on crop, wheat (level)” value ([2]; 30 g/ha) was 0. For the same compound, the “Weed control effect, Echinochloa crus-galli (activity level)” value [3] was 10, the “Weed control effect, Monochoria vaginalis (activity level)” value [4] was 10 and the “Weed control effect, Scirpus juncoides” value [5] was 10. For the same compound, the “Rice (safety, activity level)” value [6] was 0.

In the case of C#CCOCc1c(S(C)(=O)=O)ccc(C(=O)c2cnn(C(C)C)c2OC(=O)c2cn(C)nc2C)c1Cl [Compound 100], the “weed control effect, Abutilon theophrasti (level)” value ([1]; 30 g/ha) is reported as 7 (Level 7: above 70% growth inhibition rate), the “weed control effect, Bidens pilosa (level)” value ([1]; 30 g/ha) is reported as 7 (Level 7: above 70% growth inhibition rate) and the “weed control effect, Digitaria sanguinalis (level)” value ([1]; 30 g/ha) is reported as 7 (Level 7: above 70% growth inhibition rate). For the same compound, the “weed control effect, Echinochloa crus-galli (level)” value ([1]; 30 g/ha) was 10, the “weed control effect, Rorippa indica (level)” value ([1]; 30 g/ha) was 10 and the “weed control effect, Setaria viridis (level)” value ([1]; 30 g/ha) was 10. The “effect on crop, corn (level)” value ([2]; 30 g/ha) was 1 (Level 1: above 1-10% growth inhibition rate), the “effect on crop, rice (level)” value ([2]; 30 g/ha) was 5 (Level 5: above 50% growth inhibition rate) and the “effect on crop, wheat (level)” value ([2]; 30 g/ha) was 0. For the same compound, the “Weed control effect, Echinochloa crus-galli (activity level)” value [3] was 10, the “Weed control effect, Monochoria vaginalis (activity level)” value [4] was 8 (Level 8: above 80% growth inhibition rate) and the “Weed control effect, Scirpus juncoides” value [5] was 10. For the same compound, the “Rice (safety, activity level)” value [6] was 0.

For C#CCOCc1c(S(C)(=O)=O)ccc(C(=O)c2c(CC)nn(CC)c2OC(=O)c2c(Cl)c(CC)nn2C)c1Cl [Compound 107], the “weed control effect, Abutilon theophrasti (level)” value ([1]; 60 g/ha) was 10, the “weed control effect, Bidens pilosa (level)” value ([1]; 60 g/ha) was 8 (Level 8: above 80% growth inhibition rate) and the “weed control effect, Digitaria sanguinalis (level)” value ([1]; 60 g/ha) was 8 (Level 8: above 80% growth inhibition rate). The “weed control effect, Echinochloa crus-galli (level)” value ([1]; 60 g/ha) was 10, the “weed control effect, Rorippa indica (level)” value ([1]; 60 g/ha) was 10 and the “weed control effect, Setaria viridis (level)” value ([1]; 60 g/ha) was 10. For the same compound, the “effect on crop, corn (level)” value ([2]; 60 g/ha) was 0, the “effect on crop, rice (level)” value ([2]; 60 g/ha) was 7 (Level 7: above 70% growth inhibition rate) and the “effect on crop, wheat (level)” value ([2]; 60 g/ha) was 0. The “Weed control effect, Echinochloa crus-galli (activity level)” value [3] was 9 (Level 9: above 90% growth inhibition rate), the “Weed control effect, Monochoria vaginalis (activity level)” value [4] was 10 and the “Weed control effect, Scirpus juncoides” value [5] was 10. The “Rice (safety, activity level)” value [6] was 10.
